{"source": "paper PMC7497641", "about": "“Neurotropic activity and safety of methylene-cycloalkylacetate (MCA) derivative 3-(3-allyl-2-methylenecyclohexyl) propanoic acid” (ACS Chemical Neuroscience, 2020)", "molecular_target": "T1, Lymphocyte Cell-Specific Protein-Tyrosine Kinase (Src family) (LCK) (Homo sapiens, UniProt P06239)", "T1 construct": "host or cells: E. coli BL21-derived host (T7 phage) or HEK-293", "T1 sequence (P06239 whole entry)": "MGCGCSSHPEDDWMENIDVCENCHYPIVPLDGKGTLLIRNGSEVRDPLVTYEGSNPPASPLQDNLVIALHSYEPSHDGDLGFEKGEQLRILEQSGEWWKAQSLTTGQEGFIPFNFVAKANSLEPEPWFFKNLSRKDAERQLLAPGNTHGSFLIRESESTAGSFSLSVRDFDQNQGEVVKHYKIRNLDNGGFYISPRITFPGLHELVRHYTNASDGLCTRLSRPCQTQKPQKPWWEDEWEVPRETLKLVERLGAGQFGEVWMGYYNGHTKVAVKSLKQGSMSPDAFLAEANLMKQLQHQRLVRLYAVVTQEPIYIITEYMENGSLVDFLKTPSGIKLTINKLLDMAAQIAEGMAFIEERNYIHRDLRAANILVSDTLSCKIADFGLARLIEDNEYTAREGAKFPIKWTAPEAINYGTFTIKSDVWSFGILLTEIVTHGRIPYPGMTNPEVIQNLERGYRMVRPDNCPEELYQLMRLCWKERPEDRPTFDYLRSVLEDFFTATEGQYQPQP", "assay": "SAFETYscan KINOMEscan binding assay", "conditions": "Inhibitor", "data": [{"compound": "C=CCC1CCCC(CCC(=O)O)C1=C", "note": "(centres unmarked) [HU-MCA-13, 3-(3-allyl-2-methylenecyclohexyl)propanoic acid]", "values": [{"measurement": "inhibition at 10 µM", "setting": "10 μM, read-out: MCA-13 Max. Responce", "value": 12.8, "unit": "%"}, {"measurement": "IC50", "setting": "read-out: RC50 (the source's name)", "value": "> 10", "unit": "µM"}]}]}
